Test results: patent US20240336642A1 (The General Hospital Corporation, priority 2021, published 2024)

What was measured:
[1] = system: experimental stroke model in mice (MCAO); assay: Mouse stroke model, filament middle cerebral artery occlusion (MCAO), infarct size; format: in vivo
Experimental: Studies were carried out in experimental stroke model in mice, using the filament model of middle cerebral artery occlusion (MCAO). For intraperitoneal delivery, compounds were dissolved in DMSO. A number of exemplified compounds were able to reduce infarct size when given at a dosage of 40 mg/kg.
40 mg/kg cmpd. 1 were given i.p. at time of reperfusion. Infarct size was measured at 24 hours after 60 minutes MCAO.
MCAO (Experimental Middle Cerebral Artery Ischemia and Functional Recovery) experiment: 40 mg/kg of compound delivered intraperitoneally 2 h post reperfusion, 60 minutes MCAO, sacrifice at 24 h, infarct size determined by TTC staining.

[2] = system: experimental stroke model in mice (MCAO); assay: Long-term outcome after MCAO: foot fault test; format: in vivo, mouse; details: 40 mg/kg i.v. 2 hours post reperfusion
Experimental: (§1) Long-term outcome experiment: 40 mg/kg cmpd. 1 delivered I.V. 2 hours post reperfusion, same as short term, compared to vehicle (10% solutol/90% PEG400). 45 mice operated, and 27 survived, mice were sacrificed on day 30.

COX-1 = assay: Selectivity versus COX-1; format: biochemical
5-LOX = 5-LOX (Homo sapiens (Human), UniProt P09917); assay: Selectivity versus 5-LOX; format: biochemical
Sequence of 5-LOX (P09917 whole entry, the tested form may be a part): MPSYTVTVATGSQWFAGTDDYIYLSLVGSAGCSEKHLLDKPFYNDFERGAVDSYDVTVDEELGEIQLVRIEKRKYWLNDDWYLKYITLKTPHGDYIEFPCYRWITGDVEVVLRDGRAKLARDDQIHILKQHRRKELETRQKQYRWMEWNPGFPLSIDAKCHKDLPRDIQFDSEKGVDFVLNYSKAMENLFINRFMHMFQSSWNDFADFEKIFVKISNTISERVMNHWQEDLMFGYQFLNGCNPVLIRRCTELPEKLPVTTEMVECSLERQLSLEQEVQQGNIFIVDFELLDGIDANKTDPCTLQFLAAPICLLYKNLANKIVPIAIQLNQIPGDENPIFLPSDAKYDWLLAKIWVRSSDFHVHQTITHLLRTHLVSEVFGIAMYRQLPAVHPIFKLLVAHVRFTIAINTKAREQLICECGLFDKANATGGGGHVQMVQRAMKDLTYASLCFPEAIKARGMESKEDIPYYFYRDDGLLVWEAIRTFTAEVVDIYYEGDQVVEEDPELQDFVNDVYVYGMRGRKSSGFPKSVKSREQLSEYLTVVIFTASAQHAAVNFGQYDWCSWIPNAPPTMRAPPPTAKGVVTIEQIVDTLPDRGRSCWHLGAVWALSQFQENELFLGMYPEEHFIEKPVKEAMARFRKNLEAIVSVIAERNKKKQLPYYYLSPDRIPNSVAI

[3] = system: experimental stroke model in mice (MCAO); assay: Long-term outcome after MCAO: corner test; format: in vivo, mouse; details: 40 mg/kg i.v. 2 hours post reperfusion
Experimental: as §1

[4] = Solubility in formulation vehicles (Solutol HS-15/PEG400, Captisol); format: physicochemical; details: 10% Solutol/90% PEG400
Experimental: Combinations of Solutol HS-15 (also known as Kolliphor HS-15) with PEG400 provided a good vehicle to solubilize the tested compounds. Specifically, 10% Solutol/90% PEG400 was used to prepare 20 mg/ml solutions of compound 1, compound 44, and compound 32. 10% Solutol/15% H2O/[…] led to 10 mg/ml solutions of the tested compounds.
20 mg/ml were obtained in 20% Captisol, allowing for intravenous delivery in the mouse stroke model.

[5] = Aqueous solubility of exemplified compounds (Example 3); format: physicochemical; details: aqueous solubility
15-LOX2 = 15-LOX2 (Homo sapiens (Human), UniProt O15296); assay: Selectivity versus 15-LOX2; format: biochemical
Sequence of 15-LOX2 (O15296 whole entry): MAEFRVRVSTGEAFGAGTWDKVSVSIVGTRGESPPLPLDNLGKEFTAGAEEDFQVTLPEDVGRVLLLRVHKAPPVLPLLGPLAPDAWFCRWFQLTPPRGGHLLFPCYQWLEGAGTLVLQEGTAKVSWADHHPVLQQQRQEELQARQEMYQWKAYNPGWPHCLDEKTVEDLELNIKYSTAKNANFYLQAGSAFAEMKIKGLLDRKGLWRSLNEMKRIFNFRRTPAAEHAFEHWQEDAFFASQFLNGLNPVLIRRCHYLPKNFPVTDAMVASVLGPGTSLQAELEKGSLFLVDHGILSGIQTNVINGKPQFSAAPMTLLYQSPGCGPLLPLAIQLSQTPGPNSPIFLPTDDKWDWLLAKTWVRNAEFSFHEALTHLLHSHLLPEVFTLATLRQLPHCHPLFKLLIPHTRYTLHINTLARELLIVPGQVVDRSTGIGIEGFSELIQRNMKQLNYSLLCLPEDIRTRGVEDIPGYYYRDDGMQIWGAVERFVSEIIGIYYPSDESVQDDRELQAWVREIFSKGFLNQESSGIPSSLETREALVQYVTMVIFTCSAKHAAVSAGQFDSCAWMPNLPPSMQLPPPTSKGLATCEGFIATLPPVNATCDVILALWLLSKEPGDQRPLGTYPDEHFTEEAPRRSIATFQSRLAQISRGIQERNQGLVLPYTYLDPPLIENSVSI

Human 12/15-LOX HEK = Human 12/15-LOX HEK (Homo sapiens (Human), UniProt P16050); assay: Human 12/15-LOX HEK EC50; format: cell-based
Sequence of Human 12/15-LOX HEK (P16050 whole entry): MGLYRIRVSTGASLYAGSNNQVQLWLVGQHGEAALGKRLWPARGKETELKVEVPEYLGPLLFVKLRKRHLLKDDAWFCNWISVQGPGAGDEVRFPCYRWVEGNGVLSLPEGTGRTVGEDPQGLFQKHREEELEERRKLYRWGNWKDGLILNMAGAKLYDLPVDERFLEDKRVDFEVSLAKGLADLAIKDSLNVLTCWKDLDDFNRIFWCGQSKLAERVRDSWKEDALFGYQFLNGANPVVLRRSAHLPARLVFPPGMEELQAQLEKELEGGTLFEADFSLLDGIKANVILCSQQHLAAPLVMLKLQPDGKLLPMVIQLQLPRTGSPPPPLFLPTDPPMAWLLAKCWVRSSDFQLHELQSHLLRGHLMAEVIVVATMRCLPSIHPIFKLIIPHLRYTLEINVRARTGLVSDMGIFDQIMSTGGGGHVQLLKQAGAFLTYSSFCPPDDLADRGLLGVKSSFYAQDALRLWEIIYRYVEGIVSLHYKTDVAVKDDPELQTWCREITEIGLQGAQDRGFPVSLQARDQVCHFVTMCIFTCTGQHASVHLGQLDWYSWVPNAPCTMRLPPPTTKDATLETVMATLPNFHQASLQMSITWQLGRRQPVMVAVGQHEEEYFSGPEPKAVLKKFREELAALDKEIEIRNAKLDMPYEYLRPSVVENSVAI

SAH wild-type mice = assay: Subarachnoid hemorrhage (SAH) mouse model; format: in vivo; details: wild-type mice with SAH
Excerpt: The effect of the exemplified compounds (which are, e.g., inhibitors of 12/15-LOX as discussed herein) on treating bran injury after subarachnoid hemorrhage can be assessed in a mouse model as described, for example, in Gaberel et al, Stroke, 2019, 50, 520-523, which is incorporated herein by reference in its entirety. Subarachnoid hemorrhage (SAH) is a devastating form of stroke. It may lead to substantial brain injury. The mouse model to study the impact of 12/15-LOX inhibitors on subarachnoid hemorrhage includes C57Bl6 wild-type mice and Alox15 knockout mice. These mice are subjected to SAH using direct blood injection technique. […] Immunohistochemistry, brain edema, blood-brain barrier leakage and functional outcomes were assessed 1 and 3 days after SAH induction. […]
All animal experiments were performed following protocols approved by the Massachusetts General Hospital Institutional Animal Care and Use Committee in accordance with the National Institutes of Health Guide for the Care and Use of Laboratory Animals. […] Sample sizes were evaluated as follows: based on prior experience, coefficients of variation around 35% between mice are expected. […]
Except the mice used for IHC 24 h after SAH induction, all mice were assessed at 72 hours using a 4-point Neuroscore scale, a 18 point Neuroscore scale, and by evaluating spontaneous activity. […]

Mouse 12/15-LOX E. coli = Mouse 12/15-LOX E. coli (Mus musculus (Mouse), UniProt P39654); assay: Mouse 12/15-LOX E. coli IC50; format: biochemical
Sequence of Mouse 12/15-LOX E. coli (P39654 whole entry): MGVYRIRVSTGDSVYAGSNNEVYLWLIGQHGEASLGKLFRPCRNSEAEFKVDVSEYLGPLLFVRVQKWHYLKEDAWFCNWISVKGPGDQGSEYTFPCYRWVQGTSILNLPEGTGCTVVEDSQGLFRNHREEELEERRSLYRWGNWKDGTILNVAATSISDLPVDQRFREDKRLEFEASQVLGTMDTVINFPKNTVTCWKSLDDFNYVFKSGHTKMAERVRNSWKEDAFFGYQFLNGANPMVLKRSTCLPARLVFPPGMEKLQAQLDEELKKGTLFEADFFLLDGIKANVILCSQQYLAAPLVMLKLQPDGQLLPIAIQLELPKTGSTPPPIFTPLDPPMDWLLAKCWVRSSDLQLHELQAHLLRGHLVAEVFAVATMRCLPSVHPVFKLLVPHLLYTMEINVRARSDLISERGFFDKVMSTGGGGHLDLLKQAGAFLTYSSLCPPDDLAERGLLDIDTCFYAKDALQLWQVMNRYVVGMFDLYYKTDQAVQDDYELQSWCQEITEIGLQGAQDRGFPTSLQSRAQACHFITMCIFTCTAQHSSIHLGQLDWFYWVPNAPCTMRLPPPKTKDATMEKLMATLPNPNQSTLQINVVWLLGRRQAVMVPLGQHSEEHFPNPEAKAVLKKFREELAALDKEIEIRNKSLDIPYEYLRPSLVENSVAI

Mouse HT22 = Mouse HT22 EC50; format: cell-based; details: HT-22

CNc1oc(-c2cc(Cl)cc(Cl)c2Cl)nc1C#N [Compound 1, 5-(methylamino)-2-(2,3,5-trichlorophenyl) oxazole-4-carbonitrile]
infarct size reduction ([1]; 20 mg/kg i.v. 2 hours post reperfusion): 25.8% | infarct size reduction ([1]; 40 mg/kg i.v. in 10% Solutol/90% PEG400, 2 h after reperfusion, 24 h): 34.1% | infarct size reduction ([1]; female mice, 40 mg/kg i.p. at time of reperfusion, 24 h after 60 minutes MCAO): 37.2% | infarct size reduction ([1]; male mice, 40 mg/kg i.p. at time of reperfusion, 24 h after 60 minutes MCAO): 33.4% | Foot fault test, improvement compared to vehicle treatment ([2]; Week 1): 61.7% | Foot fault test, improvement compared to vehicle treatment ([2]; Week 4): 77.0% | selectivity over COX-1 (COX-1): > 400 fold | selectivity over 5-LOX (5-LOX): > 400 fold | Corner test, improvement compared to vehicle treatment ([3]; Week 1): 68.7% | Corner test, improvement compared to vehicle treatment ([3]; Week 4): 75.4% | solution concentration achieved [4]: 20 mg/mL | Sol [5]: + (“+” < 10 μM) | selectivity over 15-LOX2 (15-LOX2): > 400 fold | EC50 (Human 12/15-LOX HEK): 920 nM | Neuronal cell death after SAH (SAH wild-type mice): reduced | IC50 (Mouse 12/15-LOX E. coli): 180 nM | Mouse 12/15-LOX E. coli % max (Mouse 12/15-LOX E. coli): 82% | EC50 (Mouse HT22): 5000 nM
